Results taken from ChEMBL document CHEMBL3132769, “Fragment growing to retain or alter the selectivity of anchored kinase hinge-binding fragments” (Medchemcomm, 2014).

Tests used:
[1] = biological target: MAP kinase p38 (Homo sapiens) (UniProt O15264+Q15759+Q16539+P53778); settings: 0.1 uM
Description: Inhibition of human full length p38 beta2 expressed in Escherichia coli cell assessed as substrate phosphorylation using fluorescence-labelled peptides as substrate at 0.1 uM after 90 mins by microfluidic peptide phosphorylation assay

[2] = biological target: Mitogen-activated protein kinase 1 (Homo sapiens) (UniProt P28482); experiment: Inhibition of human full length ERK2 expressed in Escherichia coli cell assessed as substrate phosphorylation using fluorescence-labelled peptides as substrate at 9 uM after 90 mins by microfluidic peptide phosphorylation assay
[3] = biological target: T1, Serine/threonine-protein kinase BRSK1 (Homo sapiens) (UniProt Q8TDC3); experiment: Inhibition of human full length BRSK1 expressed in baculovirus assessed as substrate phosphorylation using fluorescence-labelled peptides as substrate at 9 uM after 90 mins by microfluidic peptide phosphorylation assay
T1 sequence (whole entry): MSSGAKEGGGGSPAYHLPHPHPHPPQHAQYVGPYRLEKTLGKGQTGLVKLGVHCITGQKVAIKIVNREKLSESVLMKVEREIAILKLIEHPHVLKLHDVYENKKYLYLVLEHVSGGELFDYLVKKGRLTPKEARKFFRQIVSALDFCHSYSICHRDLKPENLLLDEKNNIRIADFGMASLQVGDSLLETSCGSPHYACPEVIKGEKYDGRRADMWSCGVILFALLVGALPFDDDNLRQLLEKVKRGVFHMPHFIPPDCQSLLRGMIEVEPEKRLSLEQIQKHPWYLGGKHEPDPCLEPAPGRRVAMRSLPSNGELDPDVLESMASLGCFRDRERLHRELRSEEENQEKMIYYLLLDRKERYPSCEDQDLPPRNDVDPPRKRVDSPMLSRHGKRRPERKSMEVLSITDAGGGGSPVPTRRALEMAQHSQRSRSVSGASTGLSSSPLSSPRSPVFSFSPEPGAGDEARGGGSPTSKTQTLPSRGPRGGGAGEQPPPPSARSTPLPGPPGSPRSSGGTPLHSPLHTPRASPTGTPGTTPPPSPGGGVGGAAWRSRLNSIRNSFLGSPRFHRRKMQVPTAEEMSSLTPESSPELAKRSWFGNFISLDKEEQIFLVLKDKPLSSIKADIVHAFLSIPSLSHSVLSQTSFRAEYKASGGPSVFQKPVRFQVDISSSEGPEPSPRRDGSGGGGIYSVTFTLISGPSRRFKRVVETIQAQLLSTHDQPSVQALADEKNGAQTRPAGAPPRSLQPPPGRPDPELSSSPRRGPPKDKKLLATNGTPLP

[4] = biological target: Calcium/calmodulin-dependent protein kinase type II subunit beta (Homo sapiens) (UniProt Q13554); experiment: Inhibition of human CAMK2 beta catalytic domain expressed in baculovirus assessed as substrate phosphorylation using fluorescence-labelled peptides as substrate at 95 uM after 90 mins by microfluidic peptide phosphorylation assay
[5] = biological target: T2, Testis-specific serine/threonine-protein kinase 1 (Homo sapiens) (UniProt Q9BXA7); experiment: Inhibition of human full length TSSK1 expressed in baculovirus assessed as substrate phosphorylation using fluorescence-labelled peptides as substrate at 2 uM after 90 mins by microfluidic peptide phosphorylation assay
T2 sequence (whole entry): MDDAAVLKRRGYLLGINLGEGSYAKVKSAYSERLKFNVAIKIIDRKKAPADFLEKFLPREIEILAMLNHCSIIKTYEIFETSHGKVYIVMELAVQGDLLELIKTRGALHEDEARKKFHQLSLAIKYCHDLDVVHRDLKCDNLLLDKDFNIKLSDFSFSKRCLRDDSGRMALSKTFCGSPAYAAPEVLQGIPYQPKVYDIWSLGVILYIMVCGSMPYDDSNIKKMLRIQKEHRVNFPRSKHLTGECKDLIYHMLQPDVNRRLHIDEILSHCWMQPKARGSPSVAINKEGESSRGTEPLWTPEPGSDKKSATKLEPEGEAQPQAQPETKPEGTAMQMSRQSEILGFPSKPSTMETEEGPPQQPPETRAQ

Mitogen-activated protein kinase 1 (Homo sapiens), sequence (P28482 whole entry): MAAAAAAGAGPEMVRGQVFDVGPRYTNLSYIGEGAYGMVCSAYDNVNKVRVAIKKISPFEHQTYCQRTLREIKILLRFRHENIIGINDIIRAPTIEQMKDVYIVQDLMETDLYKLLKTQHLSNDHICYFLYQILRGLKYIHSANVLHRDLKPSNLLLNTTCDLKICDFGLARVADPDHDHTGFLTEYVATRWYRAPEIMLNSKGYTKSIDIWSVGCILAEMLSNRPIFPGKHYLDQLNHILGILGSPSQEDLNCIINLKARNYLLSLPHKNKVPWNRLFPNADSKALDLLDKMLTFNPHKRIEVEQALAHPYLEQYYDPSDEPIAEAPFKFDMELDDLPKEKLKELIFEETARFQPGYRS
Calcium/calmodulin-dependent protein kinase type II subunit beta (Homo sapiens), sequence (Q13554 whole entry, the tested form may be a part): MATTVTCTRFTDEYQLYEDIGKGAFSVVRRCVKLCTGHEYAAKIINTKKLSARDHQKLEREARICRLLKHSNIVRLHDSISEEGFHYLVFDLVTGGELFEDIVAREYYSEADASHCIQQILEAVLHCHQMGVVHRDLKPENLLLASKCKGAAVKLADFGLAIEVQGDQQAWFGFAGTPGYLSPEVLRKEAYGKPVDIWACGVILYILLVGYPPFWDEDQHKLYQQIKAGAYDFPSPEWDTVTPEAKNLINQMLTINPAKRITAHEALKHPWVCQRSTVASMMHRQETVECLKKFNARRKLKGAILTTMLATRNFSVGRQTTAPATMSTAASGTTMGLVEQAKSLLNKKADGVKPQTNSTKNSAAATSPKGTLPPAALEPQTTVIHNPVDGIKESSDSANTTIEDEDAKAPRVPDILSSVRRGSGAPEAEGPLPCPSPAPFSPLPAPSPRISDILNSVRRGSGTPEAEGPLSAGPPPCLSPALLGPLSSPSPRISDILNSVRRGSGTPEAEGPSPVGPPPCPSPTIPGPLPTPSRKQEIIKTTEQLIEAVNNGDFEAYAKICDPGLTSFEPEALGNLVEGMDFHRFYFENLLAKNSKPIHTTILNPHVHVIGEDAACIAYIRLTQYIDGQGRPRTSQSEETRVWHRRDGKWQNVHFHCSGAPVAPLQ

With `C[C@H](CN(C)C)Oc1nc(Nc2cc3cccc(Cl)c3cn2)cnc1C#N` the inhibition [1] was 0%.
With `NCC1CN(c2ncnc3[nH]c4cnccc4c23)CCO1` (stereo not given) the inhibition [2] was 1.5% and the inhibition [3] was 29.5%.
`NCCc1ccc(-c2ncnc3[nH]cnc23)cc1` was tested, and the inhibition [4] was 2%.
`NC1CCN(c2ncnc3[nH]ccc23)CC1` was tested, and the inhibition [5] was 0%.
